Results published in a melting point compilation (Tetko et al.; mined from patent text by program, amines drawn as free bases though some values may be those of a salt).

First: C=CCCOc1ccc(C(=O)Oc2ccc3ccc(=O)oc3c2)cc1
Second: CC(=O)OCc1ccc(OCC(OC(C)=O)c2cc3cc(C(C)C)ccc3o2)cc1 (stereo not drawn)
The melting point of the first is higher: 108 to 109 °C for the first, 74 to 76 °C for the second.

Compared with `CC(C)(C)C(=O)c1ccc(C(=O)NC(=O)c2ccc(C(=O)C(C)(C)C)cc2)cc1`, `CCc1ccc(C(=O)Nc2ccccc2O)cc1` is lower in melting point: 131 to 132 °C for the first, 103 to 105 °C for the second.

First: CC(C)(C)c1cc(C(=O)NN(C(=O)O)C(C)(C)C)cc(C(C)(C)C)c1O
Second: COC(=O)c1cccc(NC(=O)c2ccccc2)c1O
The melting point of the first is higher: 196 °C for the first, 105 °C for the second.

First: CS(=O)(=O)c1[nH]nc(-c2ccc(F)cc2)c1-c1ccncc1
Second: CCCOc1ccc(-c2nc3n(c2-c2ccncc2)CCC3)cc1
The melting point of the first is higher: 297 to 300 °C for the first, 148 to 150 °C for the second.

First: CCOC(=O)C1=C(C)NC(C#N)=C(C(=O)OCC)C1c1ccccc1/C=C/C(=O)OC(C)(C)C (stereo not drawn)
Second: CCOC(=O)C1=C(C)NC(C)=C([N+](=O)[O-])C1c1cccnc1 (stereo not drawn)
The melting point of the first is lower: 146 to 147 °C for the first, 264 °C for the second.

First: COc1cc(C)nc(NC(=S)NNC(=O)c2ccccc2)n1
Second: CNc1ncc2c(-c3cccc(Cl)c3)cc(/C=C/C(=O)O)c(OC)c2n1
The melting point of the first is lower: 193 to 195 °C for the first, 291 to 295 °C for the second.

Compared with `C(=NC1CN2CCC1CC2)c1ccc(-c2ccccc2)cc1` (stereo not drawn), `c1ccc(C(c2ccccc2)N2CCc3ccccc32)cc1` is lower in melting point: 82 to 84 °C for the first, 62 to 63.5 °C for the second.

First: COc1ccc(Sc2cnc(NC(C)=O)s2)cc1
Second: CCOC(=O)[C@H](C)Oc1ccc2cc(Br)ccc2c1
The melting point of the first is higher: 190 to 191 °C for the first, 72 to 74 °C for the second.

First: O=C(Nc1c(F)cccc1F)c1ccc(-n2nc(C(F)(F)F)cc2C2CC2)c(F)c1
Second: CN(C)CCNS(=O)(=O)c1cc(NC(=O)c2cnn3c(C(F)F)cc(-c4ccc(C(F)(F)F)cc4)nc23)c(Cl)s1
The melting point of the first is higher: 168 to 170 °C for the first, 162 °C for the second.

First: O=[N+]([O-])c1ccc(Oc2c(Cl)cc(S(=O)(=O)Nc3nc(-c4cccc([N+](=O)[O-])c4)cs3)cc2Cl)cc1
Second: N#CC(=Cc1ccc2[nH]ccc2c1)S(=O)(=O)c1ccc([N+](=O)[O-])cc1
The melting point of the first is higher: > 250 °C for the first, 219 to 221 °C for the second.

First: O=[N+]([O-])c1ccc(F)cc1OC1C=CCC1 (stereo not drawn)
Second: O=C(Cl)c1ccccc1Nc1cccc([N+](=O)[O-])c1
The melting point of the first is lower: 50.5 to 51 °C for the first, 141 to 145 °C for the second.

Compared with `Cn1nc(C(F)(F)F)n(-c2ccc(O)cc2)c1=S`, `CC(C)Cc1nc2c(C(F)(F)F)cccc2c(O)c1C(=O)O` is higher in melting point: 150 to 152 °C for the first, 200 °C for the second.

First: O=C(O)c1cc(=O)c(Sc2ccccc2)co1
Second: O=C(O)c1ccccc1C(=O)c1ccc(O)c(-c2ccccc2)c1
The melting point of the first is lower: 178 to 181 °C for the first, 273 °C for the second.

First: O=C1NC2(CCCCC2)Sc2ccccc21
Second: CCc1ccc(NC(=O)NCC2(c3ccccc3)CCCCC2)cc1
The melting point of the first is higher: 193 to 195 °C for the first, 138 to 139 °C for the second.

First: ClC(Cl)(Cl)c1nncs1
Second: CC(C)C(O)(C#Cc1cccs1)c1cncnc1 (stereo not drawn)
The melting point of the first is lower: 58 °C for the first, 113 to 114 °C for the second.

First: O=C(CCc1ccc2c(c1)CCCC2)N1C(=O)OC[C@@H]1Cc1ccccc1
Second: Cc1cc2c(cc1O)C(C1(C3CCCc4ccccc43)CC1)N(C)CC2 (stereo not drawn)
The melting point of the first is lower: 92 to 93 °C for the first, 160 to 163 °C for the second.

Going from `CC(C)(C)OC(=O)Nc1ccc(-c2ccccc2)cc1N` to `CC(C)(C)OC(=O)NN=C(c1ccccc1)c1ccncc1`, the melting point falls from 137 °C to 134 °C.

First: Cn1ncc2c(C(F)F)cc(-c3ccc(N)c(C#N)c3)nc21
Second: Cn1cc(C2=C(c3cn(C)c4cc(C#N)ccc34)C(=O)NC2=O)c2ccc(N)cc21
The melting point of the first is lower: 251 °C for the first, 255 to 260 °C for the second.

First: CCCC1=C(C#N)C(c2ccccc2Cl)c2c(n[nH]c2C2CC2)N1 (stereo not drawn)
Second: CCCOc1ccccc1-c1nccc(=O)[nH]1
The melting point of the first is higher: 270 °C for the first, 112 to 113 °C for the second.

First: CCOC1CN(CC=CC(=O)Nc2cc3c(Nc4cccc(Br)c4)ncnc3cc2OC)CC(OCC)O1 (stereo not drawn)
Second: COc1cccc(OC2COc3ccc(OCc4ccccc4)cc3C2=O)c1 (stereo not drawn)
The melting point of the first is higher: 133 to 138 °C for the first, 98 to 100 °C for the second.

First: CC1(C)C=C(N2CCCCC2=O)c2cc(C#N)ccc2O1
Second: CCC(CC)c1ccc(Cl)c2nc3n(c12)CCCCN3c1ncc(C(C)=O)cc1C
The melting point of the first is higher: 162 to 163 °C for the first, 142 °C for the second.

First: CC12CCC(O)CC1CCC1C2CCC2(C)C(=O)CCC12F (stereo not drawn)
Second: CC=C1CCC2C3C(O)CC4CC(O)CCC4(C)C3CCC12C (stereo not drawn)
The melting point of the first is higher: 201 to 202 °C for the first, 160 to 161 °C for the second.

Compared with `COC(=O)C1Cc2c([nH]c3ccccc23)C(C)N1` (stereo not drawn), `CNc1ccc(-n2nc3c4ccccc4[nH]cc-3c2=O)cc1` is higher in melting point: 152 to 154 °C for the first, 302 to 304 °C for the second.

First: O=S1(=O)c2cccc3cccc(c23)N1CCN1CCC(Cc2c[nH]c3ccc(F)cc23)CC1
Second: CCOc1cc(F)ccc1N1CCN(Cc2ccc(CNC(C)=O)cc2)CC1
The melting point of the first is higher: 161 °C for the first, 108 to 109 °C for the second.

First: OCc1cccc(-c2ccc3nnn(Cc4ccc5ncccc5c4)c3n2)c1
Second: O=c1c(O)c(-c2ccccn2)oc2ccc(OCc3ccc(F)cc3)cc12
The melting point of the first is lower: 191 to 193 °C for the first, 204 to 205 °C for the second.

First: CCc1cccc(Cn2[nH]c(N)cc2=O)c1
Second: CC(C)n1c(=O)sc2cc(N)ccc21
The melting point of the first is lower: 73 °C for the first, 146 to 148 °C for the second.

First: CC(C)N1Cc2ccccc2P1(=O)c1ccccc1 (stereo not drawn)
Second: O=C(NCc1ccccc1)c1sc2ccccc2c1Br
The melting point of the first is lower: 92 to 94 °C for the first, 115 to 117 °C for the second.

First: CCNCC1CCN(c2c(F)cc3c(=O)c(C(=O)O)cn(C4CCC4)c3c2F)C1 (stereo not drawn)
Second: O=C(O)c1cc(S(=O)(=O)NC2CCCCC2)cc2c1OCCO2
The melting point of the first is higher: 223 to 225 °C for the first, 150 °C for the second.

First: CN1CCN(c2cccc3c2CC[C@@H](N)C3)CC1
Second: OCCN1CCN(Cc2ccc(O)c3ncccc23)CC1
The melting point of the first is lower: 98 to 99 °C for the first, 123 to 124 °C for the second.

First: C=CCNc1cc(Cl)nnc1NN
Second: CCCCCCc1c(Cl)nc(NC=O)nc1Cl
The melting point of the first is higher: 184 to 186 °C for the first, 80 to 81 °C for the second.

Compared with `Cc1ccc(S(=O)(=O)N2C3=NC(C)(C)N(C)C(=O)N3c3ccccc32)cc1`, `COc1ccc(S(=O)(=O)N2CCc3cccc(-c4ccco4)c32)cc1` is higher in melting point: 147 to 149 °C for the first, 177 to 178 °C for the second.

First: O=[N+]([O-])c1nccn1CC(O)CN1CC1 (stereo not drawn)
Second: CCCc1nc(C)nc(O)c1Cc1ccc([N+](=O)[O-])cc1
The melting point of the first is lower: 118 to 120 °C for the first, 200 °C for the second.

First: O=S(=O)(/C=C/c1ccc(F)cc1)Nc1ccc(Cl)cc1
Second: O=C(O)Cc1ccc(NC(=O)C(COc2cccc(Cl)c2)NS(=O)(=O)c2ccc(F)cc2)cc1 (racemic)
The melting point of the first is lower: 126 to 128 °C for the first, 195 to 197 °C for the second.

Compared with `CON=Cc1nc(C)n2c1CN=C(c1ccccc1)c1cc(Cl)ccc1-2`, `Cc1ccc(-c2cc3ccccc3[nH]2)cc1` is higher in melting point: 193 to 195 °C for the first, 213 to 215 °C for the second.

First: O=S(c1ccccc1)c1ncc(Cl)cc1F (stereo not drawn)
Second: Clc1nc2ccccc2nc1OCCOc1ccccc1
The melting point of the first is lower: 77 to 78 °C for the first, 99.5 to 102 °C for the second.

First: CNC(=O)[C@@H]1C=CCN1C(=O)OC(C)(C)C
Second: CC(=O)Nc1ccc(C(=O)OC2C=C(C)C(=O)CC(C)(C)C2O)cc1 (stereo not drawn)
The melting point of the first is lower: 47 to 48 °C for the first, 134 to 135 °C for the second.

Compared with `CC(C)(O)CCCCc1ccc2ccccc2c1O`, `CCC1(O)c2ccccc2C=Cc2ccccc21` is lower in melting point: 101 to 102 °C for the first, 63 to 65 °C for the second.

First: CCOC(=O)CCCn1c(NC(=O)c2cccs2)nc2cc(C(=O)N(C)C3CCCCC3)ccc21
Second: Cc1nn2ccccc2c1C(=O)C1=CN(C(=O)Nc2ccc(Cl)cc2)CCC1
The melting point of the first is lower: 82 to 84 °C for the first, 198 to 200 °C for the second.

Compared with `Fc1ccc(Oc2ncccc2COCc2ccccc2)cc1`, `OCc1cccnc1Oc1ccc(F)cc1` is higher in melting point: 49 to 50 °C for the first, 70 to 72 °C for the second.

Compared with `CCOC(=O)C(CO)NC(=O)C(N)(CC(=O)O)NC(=O)C(C)C` (stereo not drawn), `COC(=O)[C@H](C)N(C(=O)[C@H](CC(C)C)NC(=O)OCc1ccccc1)c1ccc(-c2ccccc2)cc1` is lower in melting point: 175 to 178 °C for the first, 126 to 127 °C for the second.

First: CCOC(=O)c1cc2c(nc1C(=O)OCC)CCSC2
Second: CCOC(=O)Cc1sc(Sc2nc(C)ccc2C(=O)OCC)nc1C
The melting point of the first is lower: 65 to 66 °C for the first, 95 to 97 °C for the second.

Compared with `Cc1csc(N)c1S(=O)(=O)NC(=S)NC(C)C`, `CC#CCOc1ccc(S(=O)(=O)NC(Cc2c[nH]c3ccc(C)cc23)C(=O)O)cc1` (stereo not drawn) is lower in melting point: 118 to 120 °C for the first, 45 to 46 °C for the second.

First: NC(=O)c1[nH]cnc1OC1OC(COCc2ccccc2)C(OCc2ccccc2)C1OCc1ccccc1 (stereo not drawn)
Second: O=C(OCC=Cc1ccccc1)c1cccc2nnsc12
The melting point of the first is higher: 215 to 216 °C for the first, 70 to 72 °C for the second.

First: O=C(CCl)Nc1ccc2c(c1NC(=O)c1ccccc1C(F)(F)F)C(=O)c1ccccc1C2=O
Second: O=C(Nc1ccc(I)cc1)c1ccccc1-c1ccc(C(F)(F)F)cc1
The melting point of the first is higher: 248 to 250 °C for the first, 147 °C for the second.

Compared with `Cc1nn(CC(F)(F)COC(=O)N(C)C)c(-c2ccc(F)cc2)c1-c1ccc2c(c1)NC(=O)CO2`, `CSc1nnc(-c2ccc3occ(-c4ccc(OC(F)(F)F)cc4)c3c2)o1` is lower in melting point: 146 °C for the first, 138 to 139 °C for the second.

First: Cc1cccc(NS(=O)(=O)c2ccc(NC3=C(Cl)C(=O)c4ccccc4C3=O)cc2)c1
Second: COc1cc(-c2nc3sccn3c2-c2ccnc(N[C@@H]3CCCN(S(=O)(=O)c4ccc(Cl)cc4)C3)n2)ccc1F
The melting point of the first is higher: 234 to 237 °C for the first, 142 to 143 °C for the second.

First: CC(C)(C)OC(=O)c1ccc(C(=O)N[C@H]2CN3C(=O)N(c4cc(Cl)cc(Cl)c4)C(=O)[C@@]3(Cc3ccc(Br)cc3)C2)cc1
Second: N#CCc1cccc(C(=O)c2ccc(Cl)cc2)c1N
The melting point of the first is lower: 112 °C for the first, 181 to 182 °C for the second.

First: COc1ccc2[nH]cc(CC#N)c2c1Cl
Second: Cc1ccc(CC(O)=S)cc1
The melting point of the first is higher: 138 to 139 °C for the first, 94.5 to 95 °C for the second.

Compared with `C=CCCCCCCCCNC(=O)N[C@H]1CCCNC(=O)C1`, `Cc1[nH]cnc1CSCCCN=C(NC#N)NCCc1c[nH]cn1` is higher in melting point: 98 to 99 °C for the first, 135 to 137 °C for the second.

First: CC(=O)COc1ccc(/C=C/C(=O)O)c(Oc2ncc(C(F)(F)F)cc2Cl)c1
Second: O=C(O)Cc1csc(NC(=O)C(F)(F)F)n1
The melting point of the first is higher: 179 to 180 °C for the first, 117 to 120 °C for the second.

First: CC1(C)C=C(C#Cc2ccccn2)CC(C)(C)C1
Second: C[C@H](CSc1nc2ccccc2[nH]1)Nc1nc(Cl)nc2c1ncn2[C@@H]1O[C@H](CO)[C@@H](O)[C@H]1O
The melting point of the first is lower: 55 to 56 °C for the first, 213 to 215 °C for the second.

Work on `N#CC=Cc1ccc(C(=O)Cl)cc1` yielded a melting point of 154 °C.
